Test [1] concerns the target Lysine-specific demethylase 4A (Homo sapiens, UniProt O75164). Kind of test: inhibition of JMJD2A H3K9me3 demethylation – biochemical, DELFIA europium, cherry-picked samples, selectivity assay for GASC-1 inhibitor project, dose response (AID 488840).
The target in test [2] is T1, Intestinal-type alkaline phosphatase (Mus musculus, UniProt P24822). Briefly: PubChem AID 488785. The class given is functional.
A further test addresses T2, Hexokinase HKDC1 (Homo sapiens, UniProt Q2TB90).
T2 sequence (Q2TB90 whole entry): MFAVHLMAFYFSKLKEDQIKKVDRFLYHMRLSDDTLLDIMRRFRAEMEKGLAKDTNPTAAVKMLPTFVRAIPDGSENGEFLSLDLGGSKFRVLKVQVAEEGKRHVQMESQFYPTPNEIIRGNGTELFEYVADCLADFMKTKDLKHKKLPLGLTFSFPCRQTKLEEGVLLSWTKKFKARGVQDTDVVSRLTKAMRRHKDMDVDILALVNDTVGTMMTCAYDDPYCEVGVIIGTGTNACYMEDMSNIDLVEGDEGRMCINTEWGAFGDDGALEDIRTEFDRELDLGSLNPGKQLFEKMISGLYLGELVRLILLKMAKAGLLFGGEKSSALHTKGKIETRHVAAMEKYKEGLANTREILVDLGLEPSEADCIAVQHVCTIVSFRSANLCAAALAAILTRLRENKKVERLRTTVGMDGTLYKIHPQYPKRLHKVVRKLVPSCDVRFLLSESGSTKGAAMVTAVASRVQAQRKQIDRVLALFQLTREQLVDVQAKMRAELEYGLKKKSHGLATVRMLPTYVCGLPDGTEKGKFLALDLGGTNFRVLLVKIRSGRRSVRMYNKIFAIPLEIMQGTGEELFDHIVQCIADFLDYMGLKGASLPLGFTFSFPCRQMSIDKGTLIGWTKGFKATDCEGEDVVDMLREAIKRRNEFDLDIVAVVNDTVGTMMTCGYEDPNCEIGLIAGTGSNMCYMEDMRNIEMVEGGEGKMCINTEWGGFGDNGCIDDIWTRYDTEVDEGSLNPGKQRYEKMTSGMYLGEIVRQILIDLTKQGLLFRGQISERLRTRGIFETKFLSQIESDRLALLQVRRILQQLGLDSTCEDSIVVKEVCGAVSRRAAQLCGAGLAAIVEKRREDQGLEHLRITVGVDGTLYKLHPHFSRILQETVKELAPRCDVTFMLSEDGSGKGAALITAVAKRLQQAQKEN
Kind of test: inhibition of HKDC1 glucose phosphorylation – biochemical, W721R variant, dose response (AID 504729). The class given is functional.

The target in test [3] is T3, Alkaline phosphatase, tissue-nonspecific isozyme (Homo sapiens, UniProt P05186).
T3 sequence (P05186 whole entry): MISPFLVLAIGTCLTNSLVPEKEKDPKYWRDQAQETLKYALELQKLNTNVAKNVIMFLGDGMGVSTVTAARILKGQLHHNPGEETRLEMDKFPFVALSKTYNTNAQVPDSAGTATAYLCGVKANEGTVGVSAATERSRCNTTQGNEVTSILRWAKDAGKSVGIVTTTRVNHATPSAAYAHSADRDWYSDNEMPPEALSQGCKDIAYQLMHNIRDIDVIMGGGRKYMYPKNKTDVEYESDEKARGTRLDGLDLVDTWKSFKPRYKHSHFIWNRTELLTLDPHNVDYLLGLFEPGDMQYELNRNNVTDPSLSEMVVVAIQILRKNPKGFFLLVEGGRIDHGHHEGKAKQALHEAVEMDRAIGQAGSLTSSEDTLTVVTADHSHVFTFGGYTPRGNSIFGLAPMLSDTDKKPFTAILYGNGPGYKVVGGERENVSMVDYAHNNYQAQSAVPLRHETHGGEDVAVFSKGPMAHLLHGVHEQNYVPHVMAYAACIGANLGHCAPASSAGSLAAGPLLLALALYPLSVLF
Briefly: TNAP enzyme inhibition by screening hits, dose response, selectivity assay for mouse IAP inhibitor project, biochemical, human TNAP, uHTS hits (AID 488906). It is filed as functional.

In test [4] the target is T4, Intestinal-type alkaline phosphatase (Homo sapiens, UniProt P09923). Briefly: inhibition of human intestinal alkaline phosphatase – biochemical, dose response (AID 488876). It is filed as functional.
For test [5], the system named is Streptococcus sp. 'group A'. Kind of test: Streptococcus pyogenes SK(-)GAS viability under kanamycin – luminescence, BacTiterGlo, confirmation, counter-screen for streptokinase expression inhibitor project, dose response (AID 1900). The class given is functional, organism-based.
For test [6], the target named is T5, Heat shock factor protein 1 (Mus musculus, UniProt P38532).
T5 sequence (P38532 whole entry): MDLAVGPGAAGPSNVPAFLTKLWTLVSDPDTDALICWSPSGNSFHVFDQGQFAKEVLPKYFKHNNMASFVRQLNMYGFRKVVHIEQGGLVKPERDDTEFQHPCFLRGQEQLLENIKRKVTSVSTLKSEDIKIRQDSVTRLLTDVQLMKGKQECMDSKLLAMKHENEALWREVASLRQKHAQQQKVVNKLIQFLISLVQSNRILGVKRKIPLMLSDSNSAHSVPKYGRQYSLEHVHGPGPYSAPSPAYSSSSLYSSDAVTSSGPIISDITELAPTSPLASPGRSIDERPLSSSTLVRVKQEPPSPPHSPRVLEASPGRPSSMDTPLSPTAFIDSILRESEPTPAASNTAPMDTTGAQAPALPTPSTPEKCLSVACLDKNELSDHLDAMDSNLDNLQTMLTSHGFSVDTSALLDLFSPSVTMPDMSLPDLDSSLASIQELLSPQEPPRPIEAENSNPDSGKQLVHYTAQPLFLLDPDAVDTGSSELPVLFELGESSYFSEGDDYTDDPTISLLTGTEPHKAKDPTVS
Kind of test: decrease of HSF1-responsive luciferase luminescence – cell-based, NIH3T3, dose retest, confirmation (AID 2382).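 Further: NIH3T3 fibroblasts with HSF1-driven luciferase reporter stressed by proteasome inhibitor MG132; luminescence from HSF1-driven luciferase expression after 8 hours of MG132 stress.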 The class given is functional.

A further test relates to Streptococcus. Briefly: GAS UMAA2166 growth inhibition – luminescence, BacTiterGlo, counter-screen for streptokinase expression inhibitor project, dose response (AID 1915).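 Further: potency for reduction of bacterial viability or growth.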 It is filed as functional, organism-based.
The target in test [7] is T1, Intestinal-type alkaline phosphatase. Kind of test: PubChem AID 488874. The class given is functional.
Test [8] concerns the target T4, Intestinal-type alkaline phosphatase. Briefly: human intestinal alkaline phosphatase activators, dose response, biochemical, luminescence, uHTS hits (AID 463120). It is filed as functional.
Another test deals with Nonstructural protein 1 (Influenza A virus, UniProt Q194T2). It is filed as functional, Influenza A virus (A/California/07/2009(H1N1)).
In test [9] the target is T4, Intestinal-type alkaline phosphatase. Kind of test: activation of human intestinal alkaline phosphatase – biochemical, luminescent, uHTS hits, set 2, dose response (AID 488817).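 Further: potency of activators that raise enzyme activity.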 It is filed as functional.
Test [10] concerns the target T3, Alkaline phosphatase, tissue-nonspecific isozyme. Briefly: activation of tissue-nonspecific alkaline phosphatase – biochemical, TNAP isozyme, human IAP uHTS hits, selectivity assay for human IAP activator project, dose response (AID 488886).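 Further: potency of compounds raising TNAP activity as a selectivity check on IAP activators.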 It is filed as functional.
The next test concerns the target Albumin (Bos taurus, UniProt P02769). Kind of test: Counterscreen for inhibitors of T-cell receptor (TCR)-CD3 interaction: Fluorescence-based biochemical high throughput dose response assay to identify inhibitors of T-cell receptor (TCR)-CD3 interaction using a TAMRA-labeled BSA probe. It is filed as functional.

Calls of active or inactive are those of the source. Where only a bound is given, the exact number is not on record here.

T4 sequence (P09923 whole entry): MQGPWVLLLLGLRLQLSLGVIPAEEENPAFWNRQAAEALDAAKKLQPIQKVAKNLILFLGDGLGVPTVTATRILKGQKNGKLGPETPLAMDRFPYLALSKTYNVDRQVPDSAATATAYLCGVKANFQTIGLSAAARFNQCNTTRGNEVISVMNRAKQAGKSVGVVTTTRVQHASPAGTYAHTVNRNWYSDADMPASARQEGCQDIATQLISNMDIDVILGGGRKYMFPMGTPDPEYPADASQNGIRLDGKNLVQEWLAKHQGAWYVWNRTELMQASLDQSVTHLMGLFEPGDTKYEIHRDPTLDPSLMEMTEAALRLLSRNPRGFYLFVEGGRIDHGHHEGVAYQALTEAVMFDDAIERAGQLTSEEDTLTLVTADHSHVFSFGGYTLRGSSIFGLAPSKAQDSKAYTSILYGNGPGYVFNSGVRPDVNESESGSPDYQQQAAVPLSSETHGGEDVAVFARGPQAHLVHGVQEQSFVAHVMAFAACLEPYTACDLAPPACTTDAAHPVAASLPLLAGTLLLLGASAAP
T1 sequence (P24822 whole entry): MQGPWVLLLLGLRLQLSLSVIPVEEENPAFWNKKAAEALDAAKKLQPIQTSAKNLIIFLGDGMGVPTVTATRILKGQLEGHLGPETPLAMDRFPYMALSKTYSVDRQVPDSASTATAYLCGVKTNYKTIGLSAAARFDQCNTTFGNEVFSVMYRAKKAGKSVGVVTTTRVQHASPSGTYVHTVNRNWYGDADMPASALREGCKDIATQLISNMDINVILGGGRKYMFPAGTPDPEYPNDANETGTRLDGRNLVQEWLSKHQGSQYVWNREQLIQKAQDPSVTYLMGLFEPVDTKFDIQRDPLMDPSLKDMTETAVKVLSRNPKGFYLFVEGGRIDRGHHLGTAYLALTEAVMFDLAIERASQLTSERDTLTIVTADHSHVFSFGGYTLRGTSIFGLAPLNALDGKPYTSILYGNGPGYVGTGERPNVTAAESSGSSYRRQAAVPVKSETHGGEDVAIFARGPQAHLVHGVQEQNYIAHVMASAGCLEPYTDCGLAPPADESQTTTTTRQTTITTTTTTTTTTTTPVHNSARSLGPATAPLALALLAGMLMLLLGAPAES
Chain of Nonstructural protein 1 (Q194T2 whole entry): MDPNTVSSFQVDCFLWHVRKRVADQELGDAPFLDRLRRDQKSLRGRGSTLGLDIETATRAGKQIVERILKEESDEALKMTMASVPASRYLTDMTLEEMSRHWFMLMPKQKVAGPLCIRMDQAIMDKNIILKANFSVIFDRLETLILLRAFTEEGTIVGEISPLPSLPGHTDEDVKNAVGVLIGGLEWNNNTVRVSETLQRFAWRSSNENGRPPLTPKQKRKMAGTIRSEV
Chain of Albumin (P02769 whole entry): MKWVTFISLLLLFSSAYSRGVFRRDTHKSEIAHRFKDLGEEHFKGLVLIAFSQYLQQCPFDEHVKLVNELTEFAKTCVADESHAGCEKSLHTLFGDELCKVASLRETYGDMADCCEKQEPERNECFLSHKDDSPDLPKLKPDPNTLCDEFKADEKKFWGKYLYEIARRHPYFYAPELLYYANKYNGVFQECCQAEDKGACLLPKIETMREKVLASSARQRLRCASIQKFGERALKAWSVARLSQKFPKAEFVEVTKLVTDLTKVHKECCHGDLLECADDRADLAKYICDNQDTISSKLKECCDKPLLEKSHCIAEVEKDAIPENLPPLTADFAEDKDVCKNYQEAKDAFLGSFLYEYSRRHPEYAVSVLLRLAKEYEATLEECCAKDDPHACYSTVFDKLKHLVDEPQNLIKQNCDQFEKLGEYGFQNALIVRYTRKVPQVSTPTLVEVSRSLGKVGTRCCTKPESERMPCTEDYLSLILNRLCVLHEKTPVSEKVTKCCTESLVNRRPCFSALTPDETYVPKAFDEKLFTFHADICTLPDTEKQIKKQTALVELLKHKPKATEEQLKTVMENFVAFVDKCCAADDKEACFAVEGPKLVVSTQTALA
Chain of Lysine-specific demethylase 4A (O75164 whole entry): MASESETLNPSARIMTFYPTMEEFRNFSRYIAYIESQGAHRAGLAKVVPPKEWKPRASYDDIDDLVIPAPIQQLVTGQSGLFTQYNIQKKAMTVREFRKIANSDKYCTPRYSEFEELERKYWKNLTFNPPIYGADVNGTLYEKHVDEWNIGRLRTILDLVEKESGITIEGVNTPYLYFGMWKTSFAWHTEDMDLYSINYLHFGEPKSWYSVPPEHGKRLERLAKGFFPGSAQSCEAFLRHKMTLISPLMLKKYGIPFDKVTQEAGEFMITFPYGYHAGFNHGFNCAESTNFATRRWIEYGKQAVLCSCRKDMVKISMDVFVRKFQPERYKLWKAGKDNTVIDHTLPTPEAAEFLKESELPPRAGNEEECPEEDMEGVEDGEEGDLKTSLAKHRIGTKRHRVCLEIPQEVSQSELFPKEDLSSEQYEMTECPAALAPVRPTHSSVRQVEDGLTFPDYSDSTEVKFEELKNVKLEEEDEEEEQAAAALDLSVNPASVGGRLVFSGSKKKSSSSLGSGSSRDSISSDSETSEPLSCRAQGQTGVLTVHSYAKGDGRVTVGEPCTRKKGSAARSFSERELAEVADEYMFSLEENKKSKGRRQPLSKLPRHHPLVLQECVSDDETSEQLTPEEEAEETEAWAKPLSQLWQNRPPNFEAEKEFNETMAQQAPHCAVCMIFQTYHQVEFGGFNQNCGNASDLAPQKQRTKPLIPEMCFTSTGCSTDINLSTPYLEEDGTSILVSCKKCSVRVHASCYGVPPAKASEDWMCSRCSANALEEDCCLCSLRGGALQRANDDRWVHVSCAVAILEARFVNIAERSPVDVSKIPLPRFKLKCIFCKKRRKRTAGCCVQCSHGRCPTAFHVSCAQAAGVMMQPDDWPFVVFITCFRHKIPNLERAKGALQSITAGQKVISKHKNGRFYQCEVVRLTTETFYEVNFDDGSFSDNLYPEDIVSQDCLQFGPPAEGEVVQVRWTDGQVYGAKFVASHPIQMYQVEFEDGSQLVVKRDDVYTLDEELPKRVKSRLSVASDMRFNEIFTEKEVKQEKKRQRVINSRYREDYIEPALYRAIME

Take `CCC(C(=O)NCCCc1ccccc1)c1ccccc1` (centres undefined): in [1], the AC50 is 3.73 µM (active).
As to `NS(=O)(=O)c1ccc(N/N=C2\C(=O)Nn3c2nc2c(c3=O)CCCC2)cc1`, the IC50 in test [2] was 9.28 µM (active); on Hexokinase HKDC1 it was 13.2 µM (active); in [3] it was 21.2 µM (active); in test [4] it was 23.6 µM (active).
Turning to `CCOC(=O)c1c(C)[nH]c(C(=O)N/N=C/c2cc([N+](=O)[O-])ccc2O)c1C`, the EC50 was 2.33 µM (active) in test [5]; 0.86 µM (active) in [6]; 2.97 µM (active) in the test on Streptococcus; 12.1 µM (active) in [8]; 11.4 µM (active) in test [9]; 22.3 µM (active) in test [10]. For the same molecule, the figures for the IC50 (in test [7]; on Nonstructural protein 1; at Albumin) were > 100 µM (inactive), 44 µM (active) and > 94.1 µM (inactive), respectively.

The record behind these values is ChEMBL document CHEMBL1201862, “PubChem BioAssay data set” (2004).
